According to patent US20230286973A1, “PROTEIN SECRETION INHIBITORS” (KEZAR LIFE SCIENCES, priority 2020, published 2023):

Key:
[1] = tested on: multiple myeloma cell line NCI-H929; experiment: H929 Cell Viability Assay; assay type: cell-based, human; conditions: Homo sapiens, NCI-H929, 48 h, NCI-H929 cells, Celltiter-Glo
Protocol: The human multiple myeloma cell line NCI-H929 was cultured in Advanced RPMI 1640 media (Gibco®) supplemented with 6% fetal bovine serum, 2 mM Glutamine, and 1× Penicillin/Streptomycin. On the day of assay, cells were resuspended in RPMI 1640 media supplemented with 10% fetal bovine serum, 2 mM Glutamine, and 1× Penicillin/Streptomycin and plated in 384-well tissue culture plates and treated with compound dilutions in DMSO/media. Plates were incubated at 37° C., 5% CO2 for 48 hours. After 48 hours, Celltiter-Glo® (Promega) was added to each well and luciferase signal was quantified using Tecan Infinite M1000 Pro for cell viability determination.
(§1) For chemical structures that include one or more stereoisomers, but are illustrated without indicating stereochemistry, the assay data refers to a mixture of stereoisomers.

[2] = tested on: PD1-ss+10aa/Gaussia Luciferase; experiment: Dox-Induced PD1-ss-Gluc Assay; assay type: cell-based; conditions: 24 hr Dox induction; 293FRT/TO cells; mean; read-out: 24 hr Dox Inducible PD1ssGluc 293FRT/TO: Mean IC50
Text: Flp-In 293 T-REx™ cells were transfected with pcDNA™5/FRT/TO plasmid inserted with cDNA encoding Gaussia Luciferase fused to the 3′ end of cDNA encoding PD1 signal sequence plus 10 amino acids (N-[…]-C) (SEQ ID NO: 1). Transfected cells were selected for resistance to the selectable markers Hygromycin and Blasticidin to create a stable cell line that contained the PD1-ss+10aa/Gaussia Luciferase cDNA insert whose expression was regulated under the T-REx™ system. The day before assay, cells were trypsinized and plated in 384-well tissue culture plates. The next day, compound dilutions in DMSO/media containing doxycycline were added to the wells and incubated at 37° C., 5% CO2.
as §1

[3] = Liver Microsome Stability Assay (human); conditions: human liver microsomes, with NADPH, 1.0 uM compound
Protocol: (§2) Stability of a compound was assessed in the presence of liver microsomes from various sources—mouse, rat, monkey and human liver microsomes. 1.0 uM compound, 0.4% DMSO in 0.1 M Potassium Phosphate with 1.0 mg/mL liver microsomes, were incubated at 37° C. with or without 1 mM NADPH. The samples were quenched at 0, and 30 minutes.

[4] = Liver Microsome Stability Assay (rat); conditions: rat liver microsomes, with NADPH, 1.0 uM compound
Protocol: as §2

[5] = tested on: multiple myeloma cell line U266B1; experiment: U266 Cell Viability Assay; assay type: cell-based, human; conditions: Homo sapiens, U-266, 48 h, U266B1 cells, Celltiter-Glo
Protocol: The human multiple myeloma cell line U266B1 was cultured in RPMI 1640 media supplemented with 10% fetal bovine serum, 2 mM Glutamine, and 1× Penicillin/Streptomycin. Cells were plated in 384-well tissue culture plates and treated with compound dilutions in DMSO/media. Plates were incubated at 37° C., 5% CO2 for 48 hours. After 48 hours, Celltiter-Glo® (Promega) was added to each well and luciferase signal was quantified using Tecan Infinite M1000 Pro for cell viability determination.
as §1

[6] = tested on: IL-2-FL/Gaussia Luciferase; experiment: Dox Induced IL2-FL-Gluc Assay; assay type: cell-based; conditions: for IC50: 24 hr Dox induction, 293FRT/TO cells, mean, read-out: 24 hr Dox Inducible IL2FLGluc 293FRT/TO: Mean IC50; for 24 hr Dox Inducible IL2FLGluc 293FRT/TO: IL2/PD1: ratio of IL2FLGluc IC50 to PD1ssGluc IC50, '<=>' given where both are I.A.
Text: Flp-In 293 T-REx™ cells were transfected with pcDNA™5/FRT/TO plasmid inserted with cDNA encoding Gaussia Luciferase fused to the 3′ end of cDNA encoding full length IL-2 (amino acids 1-153). Transfected cells were selected for resistance to the selectable markers Hygromycin and Blasticidin to create a stable cell line that contained the IL-2-FL/Gaussia Luciferase cDNA insert whose expression was regulated under the T-REx™ system. The day before assay, cells were trypsinized and plated in 384-well tissue culture plates. The next day, compound dilutions in DMSO/media containing doxycycline were added to the wells and incubated at 37° C., 5% CO2.
as §1

[7] = Liver Microsome Stability Assay (monkey); conditions: monkey liver microsomes, with NADPH, 1.0 uM compound
Protocol: as §2

[8] = Liver Microsome Stability Assay (mouse); conditions: mouse liver microsomes, with NADPH, 1.0 uM compound
Protocol: as §2

Structure (SMILES) | EC50 [1] | IC50 [2] | Liver Microsome Stability (Multiple Species): Human - % Remaining after 30 min w/NADPH [3] | Liver Microsome Stability (Multiple Species): Rat - % Remaining after 30 min w/NADPH [4] | EC50 [5] | IC50 [6] | 24 hr Dox Inducible IL2FLGluc 293FRT/TO: IL2/PD1 [6] | Liver Microsome Stability (Multiple Species): Monkey - % Remaining after 30 min w/NADPH [7] | Liver Microsome Stability (Multiple Species): Mouse - % Remaining after 30 min w/NADPH [8]
C#CCCCCn1cccc1C(=O)Nc1nc([C@H]2CCCN2c2ccccc2)cs1 [Compound C30, (R)-1-(hex-5-yn-1-yl)-N-(4-(1-phenylpyrrolidin-2-yl)thiazol-2-yl)-1H-pyrrole-2-carboxamide] | > 25 µM | 5.21 µM | 39.8% | 9.91% | > 25 µM | 5.62 µM | 1.1 | 5.63% | 37.6%
C#CCCCn1cccc1C(=O)Nc1nc([C@H]2CCCN2c2ccccc2)cs1 [Compound C31, (R)-1-(pent-4-yn-1-yl)-N-(4-(1-phenylpyrrolidin-2-yl)thiazol-2-yl)-1H-pyrrole-2-carboxamide] | > 25 µM | 4.12 µM | 53.4% | 5.84% | > 25 µM | 7.05 µM | 1.7 | 1.3% | 38.7%
C#CCn1cccc1C(=O)Nc1nc([C@H]2CCCN2c2ccccc2)cs1 [Compound C33, (R)-N-(4-(1-phenylpyrrolidin-2-yl)thiazol-2-yl)-1-(prop-2-yn-1-yl)-1H-pyrrole-2-carboxamide] | 23.8 µM | 9.67 µM | 54.7% | 20.3% | > 25 µM | 6.05 µM | 0.63 | 65% | 41.1%
O=C(Nc1nc([C@H]2CCCN2c2ccccc2)cs1)c1cccn1CC1CCS(=O)(=O)CC1 [Compound C37, (R)-1-((1,1-dioxidotetrahydro-2H-thiopyran-4-yl)methyl)-N-(4-(1-phenylpyrrolidin-2-yl)thiazol-2-yl)-1H-pyrrole-2-carboxamide] | > 25 µM | > 25 µM | 6.44% | 0.08% | > 25 µM | > 25 µM |  | 8.58% | 26%
O=C(Nc1nc([C@H]2CCCN2c2ccccc2)cs1)c1cccn1CC1CCCCC1 [Compound C39, (R)-1-(cyclohexylmethyl)-N-(4-(1-phenylpyrrolidin-2-yl)thiazol-2-yl)-1H-pyrrole-2-carboxamide] | > 25 µM | 2.75 µM | 79.7% | 56.6% | > 25 µM | 3.35 µM | 1.2 | 53.9% | 64.7%
N#Cc1cccc(Cn2cccc2C(=O)Nc2nc([C@H]3CCCN3c3ccccc3)cs2)c1 [Compound C49, (R)-1-(3-cyanobenzyl)-N-(4-(1-phenylpyrrolidin-2-yl)thiazol-2-yl)-1H-pyrrole-2-carboxamide] | > 25 µM | 0.909 µM | 1.94% | 2.9% | > 25 µM | 1.64 µM | 1.8 | 9.17% | 29.1%
N#Cc1ccc(Cn2cccc2C(=O)Nc2nc([C@H]3CCCN3c3ccccc3)cs2)cc1 [Compound C50, (R)-1-(4-cyanobenzyl)-N-(4-(1-phenylpyrrolidin-2-yl)thiazol-2-yl)-1H-pyrrole-2-carboxamide] | > 25 µM | 3.14 µM | 33.8% | 15.1% | > 25 µM | 2.06 µM | 0.66 | 33.4% | 54.5%
O=C(Nc1nc([C@H]2CCCN2c2ccccc2)cs1)c1cccn1CC1=CCOCC1 [Compound C57, (R)-1-((3,6-dihydro-2H-pyran-4-yl)methyl)-N-(4-(1-phenylpyrrolidin-2-yl)thiazol-2-yl)-1H-pyrrole-2-carboxamide] | 23.3 µM | 0.357 µM | 4.2% | 0.43% | > 25 µM | 1.07 µM | 3 | 3.43% | 9.54%
C#CCCn1cccc1C(=O)Nc1nc([C@H]2CCCN2c2ccccc2)cs1 [Compound C62, (R)-1-(but-3-yn-1-yl)-N-(4-(1-phenylpyrrolidin-2-yl)thiazol-2-yl)-1H-pyrrole-2-carboxamide] | > 25 µM | 8.44 µM | 53% | 8.75% | > 25 µM | > 25 µM | >3.0 | 0.74% | 35.4%
O=C(Nc1nc([C@H]2CCCN2c2ccccc2)cs1)c1cccn1Cc1cccnc1 [Compound E20, (R)-N-(4-(1-phenylpyrrolidin-2-yl)thiazol-2-yl)-1-(pyridin-3-ylmethyl)-1H-pyrrole-2-carboxamide] | 24.6 µM | 2.52 µM | 0.96% | 0.14% | 23.3 µM | 5 µM | 2 | 0.62% | 0.82%
O=C(Nc1nc([C@H]2CCCN2c2ccccc2)cs1)c1ccc[nH]1 [Compound E58, (R)-N-(4-(1-phenylpyrrolidin-2-yl)thiazol-2-yl)-1H-pyrrole-2-carboxamide] | > 25 µM | 8.24 µM | 26.7% | 1.33% | > 25 µM | > 25 µM | >3.0 | 7.34% | 8.68%
